{
  "source": "patent US20100227830A1",
  "about": "“USE OF ESCIN” (MARINOMED BIOTECHNOLOGIE GMBH, priority 2006, published 2010)",
  "origin": "cited, not measured here",
  "test_system": "nuclear factor-KB (NF-κB)",
  "details": "after traumatic brain injury in rats",
  "data": [
    {"substance": "β-escin", "values": [
      {"measurement": "NF-κB expression level in tissue", "value": "significant reduction of NF-κB expression level"}
    ]}
  ]
}
